Measurements: patent US10822311B2, “Pyrimidines and variants thereof, and uses therefor” (Afferent Pharmaceuticals Inc., priority 2016, dated 2020)

Assays:
[1] = target: T1, human P2X2/3 (heteromeric P2X2/3 channels) (Homo sapiens, UniProt P56373+Q9UBL9); experiment: FlexStation calcium fluorescence assay, heteromeric P2X2/3 channels in 1321N1 cells; assay type: cell-based; details: for IC50: 1321N1 cells, hP2X2/3, agonist 3 μM ATP, read-out: Average pIC50 P2X2/3 (converted)
T1 construct: expressed in transfected cells; host or cells: 1321N1 human astrocytoma cells (1321N1-hP2X2/3)
T1 sequence (P56373 1-397): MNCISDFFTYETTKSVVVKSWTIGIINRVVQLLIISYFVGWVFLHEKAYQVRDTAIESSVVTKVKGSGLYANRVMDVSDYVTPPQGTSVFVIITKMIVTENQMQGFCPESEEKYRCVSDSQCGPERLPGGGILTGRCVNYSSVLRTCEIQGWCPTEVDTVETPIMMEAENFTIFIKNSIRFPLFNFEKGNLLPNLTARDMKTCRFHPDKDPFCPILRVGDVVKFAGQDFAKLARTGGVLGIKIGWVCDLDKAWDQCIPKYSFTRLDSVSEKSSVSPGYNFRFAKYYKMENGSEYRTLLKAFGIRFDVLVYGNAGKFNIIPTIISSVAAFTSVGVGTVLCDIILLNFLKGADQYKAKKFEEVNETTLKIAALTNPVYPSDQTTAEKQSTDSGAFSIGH
T1 sequence (Q9UBL9 1-471): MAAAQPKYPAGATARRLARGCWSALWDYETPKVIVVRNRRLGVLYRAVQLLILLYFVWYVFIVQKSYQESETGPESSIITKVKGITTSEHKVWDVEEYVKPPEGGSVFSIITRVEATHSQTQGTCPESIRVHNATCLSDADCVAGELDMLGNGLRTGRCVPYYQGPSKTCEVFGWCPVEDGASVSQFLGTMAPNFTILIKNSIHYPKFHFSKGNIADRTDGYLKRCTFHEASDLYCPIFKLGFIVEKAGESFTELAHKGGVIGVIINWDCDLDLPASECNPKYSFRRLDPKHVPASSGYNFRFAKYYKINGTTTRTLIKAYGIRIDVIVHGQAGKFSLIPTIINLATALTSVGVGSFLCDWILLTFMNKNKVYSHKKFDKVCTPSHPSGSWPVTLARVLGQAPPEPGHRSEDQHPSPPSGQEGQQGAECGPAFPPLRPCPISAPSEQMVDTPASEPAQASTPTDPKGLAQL
Method: (§1) 1321N1 human astrocytoma and HEK293 human embryonic kidney cells were stably transfected with human P2X2 and P2X3 receptor subunits to form heteromeric P2X2/3 channels and passaged in flasks. Additionally, HEK293 cells were stably transfected with human P2X3 receptor subunits to form homomeric P2X3 channels.
(§2) Approximately 24 hours before the FlexStation calcium fluorescence experiment, cells were released from their flasks, centrifuged and re-suspended in nutrient medium. The cells were aliquoted into black-wall, clear-bottom 96 well plates at a density of 25,000 cells per well and incubated overnight in a humidified, CO2-enriched (5%) atmosphere at 37° C.
(§3) On the day of the experiment, cells were washed with assay buffer (calcium- and magnesium-free Hank's balanced salt solution, 20 mM HEPES, 2 mM CaCl2; AB) and loaded with 4 μM Fluo-4 (P2X2/3) or Calcium 6 (Molecular Devices, according to manufacturer's instructions; P2X3) calcium-sensitive fluorescent dye in 100 μL AB.
(§4) After 1 hour of dye loading at 37° C., 1321N1-hP2X2/3 cells were washed two times with AB and test compound or vehicle added to each well in a total volume of 150 μL AB. HEK-hP2X3 cells were not washed because the Calcium 6 dye kit includes an extracellular dye that quenches unabsorbed Calcium 6 dye; test compound or vehicle were added directly to the assay plates to achieve the appropriate concentration of test compound in a total volume of 150 μL AB.
(§5) After 20 minutes incubation at room temperature and protected from light, the assay plates were loaded into the FlexStation microplate reader and baseline fluorescence measured with an excitation wavelength of 485 nm and emission wavelength readings centered at 525 nm (515 nm cut off).
(§6) The agonist was dispensed by the FlexStation during fluorescence measurement to construct agonist activation and antagonist inhibition curves. The final agonist concentration for inhibition was 1 μM α,β-meATP for P2X3 and 3 μM ATP for P2X2/3. Peak fluorescence was measured and curves generated using a four parameter nonlinear regression equation.

[2] = target: T2, human P2X3 receptor (homomeric P2X3 channels) (Homo sapiens, UniProt P56373); experiment: FlexStation calcium fluorescence assay, homomeric P2X3 channels in HEK293 cells; assay type: cell-based; details: for IC50: HEK293 cells, hP2X3, agonist 1 μM α,β-meATP, read-out: Average pIC50 P2X3 (converted); for Selectivity P2X3/P2X2/3: Ratio=10^(P2X3pIC50−P2X2/3pIC50)
T2 construct: expressed in transfected cells; host or cells: HEK293 human embryonic kidney cells (HEK-hP2X3)
T2 sequence (P56373 1-397): T1 sequence (P56373 1-397)
Method: as §1, §2, §3, §4, §5, §6

[3] = highest concentration tested is 10 μM

IC50 [1, 3] | IC50 [2] | Selectivity P2X3/P2X2/3 [2] | Compound | other results
> 10 µM | 0.0631 µM |  | COc1nc(C(C)C)c(Oc2cnc(N)nc2N)cc1S(C)(=O)=O [Compound 16] | 
> 10 µM | 1.26 µM | >8 | COc1cc(Oc2cnc(N)nc2NC2CCOCC2)c(C(C)C)cc1OC [Compound 40] | 
0.398 µM | 0.0631 µM | 6.5 | COc1nc(C(C)C)c(Oc2cnc(N)nc2N)cc1I [Compound 15] | 
> 10 µM | 1.58 µM | >5.9 | COCCOCCNc1ncc(Oc2cc(OC)c(OC)cc2C(C)C)c(N)n1 [Compound 24] | 
> 10 µM | 1.58 µM | >5.6 | COc1cc(Oc2cnc(N)nc2Nc2ccccn2)c(C(C)C)cc1OC [Compound 43] | 
> 10 µM | 1 µM | >10 | COc1cc(Oc2cnc(N)nc2Nc2ccccc2)c(C(C)C)cc1OC [Compound 42] | 
> 10 µM | 0.316 µM |  | COc1cc(C(C)C)c(Sc2cnc(N)nc2N)cc1C [Compound 7] | 
6.31 µM | 0.126 µM |  | COc1cc(C(C)C)c(Sc2cnc(N)nc2N)cc1I [Compound 4] | P2X2/3 mean pIC50, X = S ([1]; Table 3A, sulfur-linked, hP2X2/3, 1321N1 (astrocytoma) cells, highest concentration tested is 10 μM): 5.2; Selectivity, X = S ([2]; Table 3A, sulfur-linked, P2X3 vs P2X2/3 potency ratio): 48
2.51 µM | 0.158 µM | 17 | COc1cc(Oc2cnc(N)nc2NCCN(C)C)c(C(C)C)cc1OC [Compound 38] | 
1.58 µM | 0.2 µM | 7.9 | COc1cc(Oc2cnc(NCCO)nc2N)c(C(C)C)cc1OC [Compound 22] | P2X2/3 mean pIC50, R = OMe ([1]; Table 3B, hP2X2/3, 1321N1 (astrocytoma) cells, Table 2): 5.8; Selectivity, R = OMe ([2]; Table 3B, P2X3 vs P2X2/3 potency ratio): 7.9; P2X3 mean pIC50, R = OMe ([2]; Table 3B, hP2X3, HEK293 cells, Table 2): 6.7
6.31 µM | 0.316 µM | 20 | COc1cc(Oc2cnc(N)nc2NC2CCN(C)CC2)c(C(C)C)cc1OC [Compound 39] | 
1.58 µM | 0.0631 µM |  | COc1nc(C(C)C)c(Oc2cnc(N)nc2N)cc1C(F)(F)F [Compound 18] | 
> 10 µM | 1 µM | >10.5 | COc1cc(Oc2cnc(NC(C)(C)C)nc2N)c(C(C)C)cc1OC [Compound 23] | 
> 10 µM | 1.26 µM |  | COc1ccc(Oc2cnc(N)nc2N)c(C(C)C)n1 [Compound 14] | 
> 10 µM | 0.158 µM |  | COc1cc(C(C)C)c(Sc2cnc(N)nc2N)cc1-c1nnn[nH]1 [Compound 11] | 
3.16 µM | 0.631 µM | 4.8 | COc1cc(Oc2cnc(N)nc2NCc2ccccc2)c(C(C)C)cc1OC [Compound 46] | 
> 10 µM | 0.398 µM | >27 | COc1cc(Oc2cnc(N)nc2NCCS(C)(=O)=O)c(C(C)C)cc1OC [Compound 41] | 
> 10 µM | 1 µM | >10 | COc1cc(Oc2cnc(N)nc2NCCO)c(C(C)C)cc1OC [Compound 37] | 
> 10 µM | 0.158 µM |  | COc1cc(C(C)C)c(Sc2cnc(N)nc2N)cc1S(N)(=O)=O [Compound 3] | 
> 10 µM | 0.631 µM | >15 | COc1cc(Oc2cnc(N)nc2NCC(C)C)c(C(C)C)cc1OC [Compound 33] | 
3.98 µM | 0.0398 µM |  | C#Cc1cc(Sc2cnc(N)nc2N)c(C(C)C)cc1OC [Compound 5] | 
> 10 µM | 0.2 µM |  | COc1cc(C(C)C)c(Sc2cnc(N)nc2N)cc1Br [Compound 8] | 
0.2 µM | 0.0398 µM |  | COc1cc(Oc2cnc(N)nc2N)c(C(C)C)nc1OC [Compound 13] | 
0.398 µM | 0.02 µM |  | COc1nc(C(C)C)c(Oc2cnc(N)nc2N)cc1S(N)(=O)=O [Compound 20] | 
> 10 µM | 3.98 µM | >2.5 | COc1cc(Oc2cnc(N)nc2NC(C)C)c(C(C)C)cc1OC [Compound 35] | 
> 10 µM | 5.01 µM |  | COc1cc(C(C)C)c(Sc2cnc(N)nc2N)cc1C(=O)O [Compound 12] | 
